Results as given in EP0391644B1, “Aryl-substituted rhodanine derivatives” (ELI LILLY AND COMPANY, priority 1989, dated 1990).
Structures can show the parent of a compound that is named as a salt.

Test system: adjuvant-induced arthritis
Assay: Developing Adjuvant-Induced Arthritis Test in Rats
Type: in vivo, male Lewis-Wistar rats
Settings: AUC of uninjected paw volumes, Days 16 through 30; for inhibition in vivo at 50 mg/kg / inhibition in vivo at 25 mg/kg: Rattus norvegicus, po, 720 h, read-out: % Inhibition of Uninjected Paw Volume Inflammation; for inhibition in vivo at 25 mg/kg: 25 mg/kg P.O. x 29

| Molecule | inhibition in vivo at 50 mg/kg (50 mg/kg P.O. x 29) [%] | further results |
| --- | --- | --- |
| 5-{[3,5-bis(1,1-dimethylethyl)-4-hydroxyphenyl]methylene}-3-[2-(4-morpholinyl)ethyl]amino-4-thiazolidinone [Example 49] | – | % Inhibition of Uninjected Paw Volume Inflammation (50 mg/kg P.O. x 29): 36% |
| CC(C)(C)c1cc(CC2SC(=S)NC2=O)cc(C(C)(C)C)c1O (stereo not drawn) [Example 8, 5-{[3,5-bis(1,1-dimethylethyl)-4-hydroxyphenyl]methyl}-2-thioxo-4-thiazolidinone] | 4 | – |
| CN(C)N1C(=O)C(=Cc2cc(C(C)(C)C)c(O)c(C(C)(C)C)c2)SC1=S [Example 19, 5-{[3,5-bis(1,1-dimethylethyl)-4-hydroxyphenyl]methylene}-3-dimethylamino-2-thioxo-4-thiazolidinone] | 20.7 | – |
| CC(C)(C)c1cc(C=C2SCN(C3CC3)C2=O)cc(C(C)(C)C)c1O [Example 20, 5-{[3,5-bis(1,1-dimethylethyl)-4-hydroxyphenyl]methylene}-3-cyclopropyl-4-thiazolidinone] | 36 | – |
| C=CCN1CSC(=Cc2cc(C(C)(C)C)c(O)c(C(C)(C)C)c2)C1=O [Example 24, 5-{[3,5-bis(1,1-dimethylethyl)-4-hydroxyphenyl]methylene}-3-(2-propenyl)-4-thiazolidinone] | 0 | – |
| CC(=C1SCN(C)C1=O)c1cc(C(C)(C)C)c(O)c(C(C)(C)C)c1 [Example 25, 5-{[3,5-bis(1,1-dimethylethyl)-4-hydroxyphenyl]methylmethylene}-3-methyl-4-thiazolidinone] | 8.5 | – |
| CC(C)(C)c1cc(C=C2SCN(CCN)C2=O)cc(C(C)(C)C)c1O [Example 27, 5-{[3,5-bis(1,1-dimethylethyl)-4-hydroxyphenyl]methylene}-3-(2-aminoethyl)-4-thiazolidinone] | 40 | – |
| CN(C)CCN1CSC(=Cc2cc(C(C)(C)C)c(O)c(C(C)(C)C)c2)C1=O [Example 29, 5-{[3,5-bis(1,1-dimethylethyl)-4-hydroxyphenyl]methylene}-3-[2-(dimethylamino)ethyl]-4-thiazolidinone] | 49 | – |
| CC(C)(C)c1cc(C=C2SCN(CCNCCO)C2=O)cc(C(C)(C)C)c1O [Example 30, 5-{[3,5-bis(1,1-dimethylethyl)-4-hydroxyphenyl]methylene}-3-[2-(2-hydroxyethylamino)ethyl]-4-thiazolidinone] | 44.1 | – |
| C#CCN(C)CCN1CSC(=Cc2cc(C(C)(C)C)c(O)c(C(C)(C)C)c2)C1=O [Example 31, 5-{[3,5-bis(1,1-dimethylethyl)-4-hydroxyphenyl]methylene}-3-[2-(methyl-2-propynylamino)ethyl]-4-thiazolidinone] | 28.9 | – |
| CN(C)CCNCCN1CSC(=Cc2cc(C(C)(C)C)c(O)c(C(C)(C)C)c2)C1=O [Example 32, 5-{[3,5-bis(1,1-dimethylethyl)-4-hydroxyphenyl]methylene}-3-{2-[[2-(dimethylamino)ethyl]amino]-ethyl}-4-thiazolidinone] | 48.6 | – |
| CC(C)(C)c1cc(C=C2SCN(CCNCc3ccccc3)C2=O)cc(C(C)(C)C)c1O [Example 33, 5-{[3,5-bis(1,1-dimethylethyl)-4-hydroxyphenyl]methylene}-3-{2-[(phenylmethyl)amino]ethyl}-4-thiazolidinone hydrochloride] | 30.1 | – |
| CNCCCN1CSC(=Cc2cc(C(C)(C)C)c(O)c(C(C)(C)C)c2)C1=O [Example 34, 5-{[3,5-bis(1,1-dimethylethyl)-4-hydroxyphenyl]methylene}-3-[3-(methylamino)propyl]-4-thiazolidinone] | 1.6 | – |
| CC(C)(C)c1cc(C=C2SCN(Cc3nnn[nH]3)C2=O)cc(C(C)(C)C)c1O [Example 39, 5-{[3,5-bis(1,1-dimethylethyl)-4-hydroxyphenyl]methylene}-3-(1H-tetrazol-5-ylmethyl)-4-thiazolidinone] | 2 | – |
| CCN(C)N1CSC(=Cc2cc(C(C)(C)C)c(O)c(C(C)(C)C)c2)C1=O [Example 40, 5-{[3,5-bis(1,1-dimethylethyl)-4-hydroxyphenyl]methylene}-3-(ethylmethylamino)-4-thiazolidinone] | 23 | – |
| CCCCN(C)N1CSC(=Cc2cc(C(C)(C)C)c(O)c(C(C)(C)C)c2)C1=O [Example 41, 5-{[3,5-bis(1,1-dimethylethyl)-4-hydroxyphenyl]methylene}-3-(butylmethylamino)-4-thiazolidinone] | 27 | – |
| CN1CCN(N2CSC(=Cc3cc(C(C)(C)C)c(O)c(C(C)(C)C)c3)C2=O)CC1 [Example 43, 5-{[3,5-bis(1,1-dimethylethyl)-4-hydroxyphenyl]methylene}-3-(4-methyl-1-piperazinyl)-4-thiazolidinone] | 36 | – |
| CC(C)(C)c1cc(C=C2SCN(N3CCCCC3)C2=O)cc(C(C)(C)C)c1O [Example 44, 5-{[3,5-bis(1,1-dimethylethyl)-4-hydroxyphenyl]methylene}-3-(1-piperidinyl)-4-thiazolidinone] | 15 | – |

| Molecule | inhibition in vivo at 50 mg/kg (50 mg/kg P.O. x 29) [%] | further results |
| --- | --- | --- |
| CC(C)(C)c1cc(C=C2SCN(N3CCOCC3)C2=O)cc(C(C)(C)C)c1O [Example 45, 5-{[3,5-bis(1,1-dimethylethyl)-4-hydroxyphenyl]methylene}-3-(4-morpholinyl)-4-thiazolidinone] | 36 | – |
| CC(=C1SCN(N(C)C)C1=O)c1cc(C(C)(C)C)c(O)c(C(C)(C)C)c1 [Example 46, 5-{1-[3,5-bis(1,1-dimethylethyl)-4-hydroxyphenyl]methylmethylene}-3-(dimethylamino)-4-thiazolidinone] | 9 | – |
| CNN1CSC(=Cc2cc(C(C)(C)C)c(O)c(C(C)(C)C)c2)C1=O [Example 47, 5-{[3,5-bis(1,1-dimethylethyl)-4-hydroxyphenyl]methylene}-3-(methylamino)-4-thiazolidinone] | 69.3 | – |
| CC(C)(C)c1cc(C=C2SCN(N)C2=O)cc(C(C)(C)C)c1O [Example 50, 3-amino-5-{[3,5-bis(1,1-dimethylethyl)-4-hydroxyphenyl]methylene}-4-thiazolidinone] | 62 | – |
| CCCNN1CSC(=Cc2cc(C(C)(C)C)c(O)c(C(C)(C)C)c2)C1=O [Example 51, 5-{[3,5-bis(1,1-dimethylethyl)-4-hydroxyphenyl]methylene}-3-(propylamino)-4-thiazolidinone] | – | inhibition in vivo at 25 mg/kg: 39% |
| CCNN1CSC(=Cc2cc(C(C)(C)C)c(O)c(C(C)(C)C)c2)C1=O [Example 52, 5-{[3,5-bis(1,1-dimethylethyl)-4-hydroxyphenyl]methylene}-3-(ethylamino)-4-thiazolidinone] | – | inhibition in vivo at 25 mg/kg: 45% |
| CCCNCCN1CSC(=Cc2cc(C(C)(C)C)c(O)c(C(C)(C)C)c2)C1=O [Example 54, 5-{[3,5-bis(1,1-dimethylethyl)-4-hydroxyphenyl]methylene}-3-[2-(propylamino)ethyl]-4-thiazolidinone] | 37.6 | – |
| CC(C)(C)c1cc(C=C2SCN(NCCO)C2=O)cc(C(C)(C)C)c1O [Example 55, 5-{[3,5-bis(1,1-dimethylethyl)-4-hydroxyphenyl]methylene}-3-[(2-hydroxyethyl)amino]-4-thiazolidinone] | 96.2 | – |
| CCCc1cc(C=C2SCN(C)C2=O)cc(CCC)c1O [Example 56, 5-[(4-hydroxy-3,5-dipropylphenyl)methylene]-3-methyl-4-thiazolidinone] | 38.2 | – |
| CCCc1cc(C=C2SCNC2=O)cc(CCC)c1O [Example 57, 5-[(4-hydroxy-3,5-dipropylphenyl)methylene]-4-thiazolidinone] | 44.1 | – |
| Cc1cc(C=C2SCNC2=O)cc(C(C)(C)C)c1O [Example 58, 5-{[3-(1,1-dimethylethyl)-4-hydroxy-5-methylphenyl]methylene}-4-thiazolidinone] | 16.9 | – |
| Cc1cc(C=C2SCN(N)C2=O)cc(C(C)(C)C)c1O [Example 59, 3-amino-5-{[3-(1,1-dimethylethyl)-4-hydroxy-5-methylphenyl]methylene}-4-thiazolidinone] | 19.8 | – |
| Cc1cc(C=C2SC(=S)N(N(C)C)C2=O)cc(C(C)(C)C)c1O [Example 60, 5-{[3-(1,1-dimethylethyl)-4-hydroxy-5-methylphenyl]methylene}-3-dimethylamino-2-thioxo-4-thiazolidinone] | 40.6 | – |
| CC(=O)OCCCc1cc(C=C2SCN(C)C2=O)cc(CCCOC(C)=O)c1O [Example 63, 5-{[3,5-bis[3-(acetyloxy)propyl]-4-hydroxyphenyl]methylene}-3-methyl-4-thiazolidinone] | 9.8 | – |
| CC(=O)OCCCc1cc(C=C2SCN(N(C)C)C2=O)cc(CCCOC(C)=O)c1O [Example 64, 5-{[3,5-bis[3-(acetyloxy)propyl]-4-hydroxyphenyl]methylene}-3-(dimethylamino)-4-thiazolidinone] | 5.5 | – |
| CN1CSC(=Cc2ccc(O)c(C(C)(C)C)c2)C1=O [Example 66, 5-{[3-(1,1-dimethylethyl)-4-hydroxyphenyl]-methylene}-3-methyl-4-thiazolidinone] | 26.1 | – |
| Cc1cc(C=C2SCN(C)C2=O)cc(C)c1O [Example 68, 5-[(4-hydroxy-3,5-dimethylphenyl)methylene]-3-methyl-4-thiazolidinone] | 6.5 | – |
| CN1C(=O)C(=Cc2cc(C(C)(C)C)c(O)c(C(C)(C)C)c2)SC1O (stereo not drawn) [Example 71, 5-{[3,5-bis(1,1-dimethylethyl)-4-hydroxyphenyl]methylene}-2-hydroxy-3-methyl-4-thiazolidinone] | 48.2 | – |
